In patent US12227495B2, “Herbicidal compounds” (SYNGENTA CROP PROTECTION AG, priority 2018, dated 2025):

Assays:
Type in all cases: in vivo
Settings in all cases: evaluated after 13 days
Solanum nigrum (SOLNI) [1] = experiment: Post-emergence herbicide test, glasshouse, percentage damage
How it was run: (§1)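 Compounds are applied as aqueous sprays at 500 g/ha, unless otherwise stated, either one day after sowing or to 8-day-old plants. Injury is assessed after 13 days and expressed on a 1-5 scale, where 5 means 81-100% damage.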

[2] = tested on: Echinochloa crus-galli (ECHCG); experiment: as above
How it was run: as §1

[3] = tested on: Ipomoea hederacea (IPOHE); experiment: as above
How it was run: as §1

[4] = tested on: Amaranthus retoflexus (AMARE); experiment: as above
How it was run: as §1

Lolium perenne (LOLPE) [5] = experiment: as above
How it was run: as §1

Setaria faberi (SETFA) [6] = experiment: as above
How it was run: as §1

Solanum nigrum (SOLNI) [7] = experiment: Pre-emergence herbicide test, glasshouse, percentage damage
How it was run: as §1

[8] = tested on: Echinochloa crus-galli (ECHCG); experiment: as above
How it was run: as §1

[9] = tested on: Ipomoea hederacea (IPOHE); experiment: as above
How it was run: as §1

[10] = tested on: Amaranthus retoflexus (AMARE); experiment: as above
How it was run: as §1

Lolium perenne (LOLPE) [11] = experiment: as above
How it was run: as §1

Setaria faberi (SETFA) [12] = experiment: as above
How it was run: as §1

SMILES | percentage damage caused to the plant, SOLNI (Solanum nigrum (SOLNI) [1]; 1000 g/ha) | percentage damage caused to the plant, ECHCG ([2]; 1000 g/ha) | percentage damage caused to the plant, IPOHE ([3]; 1000 g/ha) | percentage damage caused to the plant, AMARE ([4]; 1000 g/ha) | percentage damage caused to the plant, LOLPE (Lolium perenne (LOLPE) [5]; 1000 g/ha) | percentage damage caused to the plant, SETFA (Setaria faberi (SETFA) [6]; 1000 g/ha) | Pre-emergence Test SOLNI percentage damage (five point scale) (Solanum nigrum (SOLNI) [7]; rate 1000 g/ha) | Pre-emergence Test ECHCG percentage damage (five point scale) ([8]; rate 1000 g/ha) | Pre-emergence Test IPOHE percentage damage (five point scale) ([9]; rate 1000 g/ha) | Pre-emergence Test AMARE percentage damage (five point scale) ([10]; rate 1000 g/ha) | Pre-emergence Test LOLPE percentage damage (five point scale) (Lolium perenne (LOLPE) [11]; rate 1000 g/ha) | Pre-emergence Test SETFA percentage damage (five point scale) (Setaria faberi (SETFA) [12]; rate 1000 g/ha) | further results
Fc1cccc(Oc2cc(OC(F)(F)F)ccn2)c1-c1cc(C(F)F)no1 [Compound A62] | 3 (3=41-60%) | 3 (3=41-60%) | 3 (3=41-60%) | 4 (4=61-80%) | 2 (2=21-40%) | 3 (3=41-60%) | 1 (1=0-20%) | 1 (1=0-20%) | 1 (1=0-20%) | 4 (4=61-80%) | 1 (1=0-20%) | 1 (1=0-20%) | –
Fc1cc(Cl)cnc1Oc1cccc(Cl)c1-n1cc(C(F)(F)F)cn1 [Compound A159] | 5 (5=81-100%) | 3 (3=41-60%) | 4 (4=61-80%) | 5 (5=81-100%) | 4 (4=61-80%) | 5 (5=81-100%) | 5 (5=81-100%) | 5 (5=81-100%) | 2 (2=21-40%) | 5 (5=81-100%) | 5 (5=81-100%) | 5 (5=81-100%) | –
Fc1cc(Cl)cnc1Oc1ccccc1-c1ccsc1 [Compound A70] | 4 (4=61-80%) | 3 (3=41-60%) | 1 (1=0-20%) | 3 (3=41-60%) | 1 (1=0-20%) | 2 (2=21-40%) | 1 (1=0-20%) | 1 (1=0-20%) | 1 (1=0-20%) | 2 (2=21-40%) | 1 (1=0-20%) | 1 (1=0-20%) | –
O=[N+]([O-])c1cnc(Oc2cccc(F)c2-c2cc(C(F)F)no2)c(F)c1 [Compound A22] | 4 (4=61-80%) | 2 (2=21-40%) | 3 (3=41-60%) | 4 (4=61-80%) | 2 (2=21-40%) | 3 (3=41-60%) | 1 (1=0-20%) | 3 (3=41-60%) | 1 (1=0-20%) | 5 (5=81-100%) | 1 (1=0-20%) | 3 (3=41-60%) | –
N#Cc1cccc(Oc2ncc(Cl)cc2F)c1-c1cc(C(F)F)no1 [Compound A162] | 5 (5=81-100%) | 4 (4=61-80%) | 5 (5=81-100%) | 5 (5=81-100%) | 5 (5=81-100%) | 5 (5=81-100%) | 4 (4=61-80%) | 5 (5=81-100%) | 5 (5=81-100%) | 5 (5=81-100%) | 5 (5=81-100%) | 5 (5=81-100%) | –
Fc1cc(Br)cnc1Oc1cccc(Cl)c1-c1cc(C(F)F)no1 [Compound A116] | 5 (5=81-100%) | 4 (4=61-80%) | 5 (5=81-100%) | 5 (5=81-100%) | 5 (5=81-100%) | 5 (5=81-100%) | 4 (4=61-80%) | 5 (5=81-100%) | 4 (4=61-80%) | 5 (5=81-100%) | 5 (5=81-100%) | 5 (5=81-100%) | –
N#Cc1cccc(Oc2ncc(F)cc2F)c1-c1cc(C(F)F)no1 [Compound A160] | 5 (5=81-100%) | 5 (5=81-100%) | 5 (5=81-100%) | 5 (5=81-100%) | 5 (5=81-100%) | 5 (5=81-100%) | 4 (4=61-80%) | 5 (5=81-100%) | 5 (5=81-100%) | 5 (5=81-100%) | 5 (5=81-100%) | 5 (5=81-100%) | –
N#Cc1cccc(Oc2ccc(Cl)cn2)c1-c1cc(C(F)F)no1 [Compound A161] | 5 (5=81-100%) | 5 (5=81-100%) | 5 (5=81-100%) | 5 (5=81-100%) | 5 (5=81-100%) | 5 (5=81-100%) | 4 (4=61-80%) | 5 (5=81-100%) | 5 (5=81-100%) | 5 (5=81-100%) | 5 (5=81-100%) | 5 (5=81-100%) | –
N#Cc1cnc(Oc2cccc(F)c2-c2cc(C(F)F)no2)c(F)c1 [Compound A23] | 5 (5=81-100%) | 5 (5=81-100%) | 5 (5=81-100%) | 5 (5=81-100%) | 5 (5=81-100%) | 5 (5=81-100%) | 4 (4=61-80%) | 5 (5=81-100%) | 5 (5=81-100%) | 5 (5=81-100%) | 5 (5=81-100%) | 5 (5=81-100%) | –
Fc1cccc(Oc2ccc(C(F)(F)F)cn2)c1-c1cc(C(F)F)no1 [Compound A6] | – | – | – | – | – | – | – | – | – | – | – | – | percentage damage caused to the plant, SOLNI (Solanum nigrum (SOLNI) [1]; 500 g/ha): 5 (5=81-100%); percentage damage caused to the plant, ECHCG ([2]; 500 g/ha): 5 (5=81-100%); percentage damage caused to the plant, IPOHE ([3]; 500 g/ha): 3 (3=41-60%); percentage damage caused to the plant, AMARE ([4]; 500 g/ha): 4 (4=61-80%); percentage damage caused to the plant, LOLPE (Lolium perenne (LOLPE) [5]; 500 g/ha): 4 (4=61-80%); percentage damage caused to the plant, SETFA (Setaria faberi (SETFA) [6]; 500 g/ha): 5 (5=81-100%); Pre-emergence Test SOLNI percentage damage (five point scale) (Solanum nigrum (SOLNI) [7]; rate 500 g/ha): 5 (5=81-100%); Pre-emergence Test ECHCG percentage damage (five point scale) ([8]; rate 500 g/ha): 4 (4=61-80%); Pre-emergence Test IPOHE percentage damage (five point scale) ([9]; rate 500 g/ha): 2 (2=21-40%); Pre-emergence Test AMARE percentage damage (five point scale) ([10]; rate 500 g/ha): 5 (5=81-100%); Pre-emergence Test LOLPE percentage damage (five point scale) (Lolium perenne (LOLPE) [11]; rate 500 g/ha): 4 (4=61-80%); Pre-emergence Test SETFA percentage damage (five point scale) (Setaria faberi (SETFA) [12]; rate 500 g/ha): 5 (5=81-100%)
Fc1cc(Cl)cnc1Oc1ccc(Br)c(Br)c1-n1cc(C(F)(F)F)cn1 [Compound A61] | 5 (5=81-100%) | 1 (1=0-20%) | 2 (2=21-40%) | 5 (5=81-100%) | 1 (1=0-20%) | 2 (2=21-40%) | 1 (1=0-20%) | 1 (1=0-20%) | 1 (1=0-20%) | 1 (1=0-20%) | 1 (1=0-20%) | 2 (2=21-40%) | –
Fc1cccc(Oc2ncc(Cl)cc2Cl)c1-c1cc(C(F)F)no1 [Compound A4] | – | – | – | – | – | – | – | – | – | – | – | – | percentage damage caused to the plant, SOLNI (Solanum nigrum (SOLNI) [1]; 500 g/ha): 5 (5=81-100%); percentage damage caused to the plant, ECHCG ([2]; 500 g/ha): 1 (1=0-20%); percentage damage caused to the plant, IPOHE ([3]; 500 g/ha): 1 (1=0-20%); percentage damage caused to the plant, AMARE ([4]; 500 g/ha): 5 (5=81-100%); percentage damage caused to the plant, LOLPE (Lolium perenne (LOLPE) [5]; 500 g/ha): 1 (1=0-20%); percentage damage caused to the plant, SETFA (Setaria faberi (SETFA) [6]; 500 g/ha): 3 (3=41-60%); Pre-emergence Test SOLNI percentage damage (five point scale) (Solanum nigrum (SOLNI) [7]; rate 500 g/ha): 3 (3=41-60%); Pre-emergence Test ECHCG percentage damage (five point scale) ([8]; rate 500 g/ha): 2 (2=21-40%); Pre-emergence Test IPOHE percentage damage (five point scale) ([9]; rate 500 g/ha): 1 (1=0-20%); Pre-emergence Test AMARE percentage damage (five point scale) ([10]; rate 500 g/ha): 3 (3=41-60%); Pre-emergence Test LOLPE percentage damage (five point scale) (Lolium perenne (LOLPE) [11]; rate 500 g/ha): 1 (1=0-20%); Pre-emergence Test SETFA percentage damage (five point scale) (Setaria faberi (SETFA) [12]; rate 500 g/ha): 2 (2=21-40%)
